Where two headings read alike, the source gives them in different places.
Experiments:
[1] = tested on: Trachealspangen-Kette des Meerschweinchens; test: Relaxation of the spontaneously contracted guinea pig tracheal ring chain in vitro (organ bath); set-up: species or system Meerschweinchen; details: for Relative Wirkungsstärke (Theophyllin=1,00): relative to Theophyllin, from ED50 of tracheal relaxation; for EC50: relaxation as fraction of maximum by (-)Isoprenalin 10^-6 mol/l, cumulative concentrations, 37°C, read-out: ED50 (Dosis der halbmaximal möglichen Relaxation)
Method: Weiterhin wurde die relaxierende Wirkung erfindungsgemäBer Verbindungen auf die Trachealspangen-Kette des Meerschweinchens in vitro geprüft:
Vier parallele, aus jeweils 6 Einzelringen bestehende Trachealspangen-Ketten des Meerschweinchens (♂ und ♀, 430-600 g) im Organbad (5 ml, Krebs-Henseleit-Lösung mit Zusatz von Phentolamin (10^-5 mol/l, 37°C, Vorspannung der Organe 2 g, Begasung mit Carbogen) entwickeln nach etwa 20 bis 30 Minuten eine stabile, tonische Spontankontraktur. An diesen dauerkontrahierten Organen kann unter isometrischen Meßbedingungen durch Applikation der Prüfsubstanz in kumulativhalblogarithmisch ansteigender Konzentration (z.B. 1x10^-6 + 2x10^-6 + 7x10^-6 + 2x10^-5 usw. mol/l) eine Relaxation herbeigeführt werden, wobei nach jeder Einzeldosis der Testsubstanz eine konstante Relaxations-Antwort abgewartet wird, bevor die nächst höhere Konzentration appliziert wird. Ober einen Zeitraum von 20 bis 30 Minuten wird somit eine vollständige Dosis-Wirkungskurve der Testsubstanz erhalten. Die jeweilige Relaxation wird als Prozentbruchteil der durch Gabe von (-)Isoprenalin (10^-6 mol/1) maximal erreichbaren Relaxation ausgedrückt.
In Tabelle 3 sind die ED50 (Dosis der halbmaximal möglichen Relaxation) und die relative Wirkungsstärke im Vergleich zu Theophyllin für erfindungsgemäße Verbindungen angegeben.

[2] = tested on: Rinderherz PDE "Boehringer"; test: Inhibition of phosphodiesterase (PDE), substrate cAMP; assay type: biochemical, Rind; details: compound 0,2 mM; substrate cAMP 0,15 mM; Rinderherz PDE in Glycerin; 200 µM
Method: Die Tabelle 1. gibt die gefundenen Werte der Hemmung der Phosphodiesterase (PDE) an. Es wurde Rinderherz PDE "Boehringer" in Glycerin und als Substrat cAMP (0,15 mM) verwendet. Die Konzentration der untersuchten Verbindungen war 0,2 mM.

[3] = tested on: durch Methanol hervorgerufene Retinaschädigung; test: Retinotropic effect measured on the mouse electroretinogram (antagonism of methanol-induced retinal damage); assay type: in vivo, Maus; details: for Retinotrope Wirkung [%]: Elektroretinogramm der Maus; for retinotrope Wirkung (in words): in the dose range in which the compounds of the invention were tested
From the text: Die Versuchsmethodik ist bei K.K.Gauri und W.Hohl, Der Augenspiegel, 1979 (Heft 9), und […] Referenzen beschrieben.

| EC50 [1] [µM] | Hemmung der PDE in % [2] | SMILES | Relative Wirkungsstärke (Theophyllin=1,00) [1] | also measured |
| --- | --- | --- | --- | --- |
| 17 |  | CC(C)Cn1c(=O)n(C)c(=O)c2c[nH]nc21 [XV] | 7,6 |  |
| 38 | 71,52% | CCCCCCn1c(=O)c2cn(CC)nc2n(C)c1=O [IX, 2-Ethyl-5-n-hexyl-4,5,6,7-tetrahydro-7-methyl-4,6-dioxo-2H-pyrazolo-[3,4-d]pyrimidin] | 3,4 | Retinotrope Wirkung [%] ([3]; Dosis 1 mg/kg): +12% |
| 66 |  | CCn1c(=O)n(CCCCC(C)=O)c(=O)c2cnn(C)c21 [XVII, 7-Ethyl-4,5,6,7-tetrahydro-1-methyl-4,6-dioxo-5'-(5-oxo-n-hexyl)-1H-pyrazolo[3,4-d]pyrimidin] | 2,0 | Retinotrope Wirkung [%] ([3]; Dosis 2 mg/kg): +80% |
| 62 | 70,86% | CCCCCCn1c(=O)n(C)c(=O)c2cn(CCCC)nc21 [V, 2-n-Butyl-7-n-hexyl-4,5,6,7-tetrahydro-5-methyl-4,6-dioxo-2H-pyra-zolo-[3,4-d]pyrimidin] | 1,8 |  |
|  | 47,84% | CCCCCCn1c(=O)n(C)c(=O)c2c[nH]nc21 [I, 7-n-Hexyl-4,5,6,7-tetrahydro-5-methyl-4,6-dioxo-2H-pyrazolo[3,4-d]-pyrimidin] |  |  |
|  | 18,35% | CCCCCCn1cc2c(=O)n(CCCCCC)c(=O)n(C)c2n1 [XI, 2,5-Di-n-hexyl-4,5,6,7-tetrahydro-7-methyl-4,6-dioxo-2H-pyrazolo-[3,4-d]pyrimidin] |  |  |
|  | 58,51% | CCCCCCn1c(=O)n(C)c(=O)c2cn(CC)nc21 [III, 2-Ethyl-7-n-hexyl-4,5,6,7-tetrahydro-5-methyl-4,6-dioxo-2H-pyrazolo-[3,4-d]pyrimidin] |  | Retinotrope Wirkung [%] ([3]; Dosis 1 mg/kg): +24% |
|  | 47,41% | CCCCCCn1c(=O)n(C)c(=O)c2cn(C)nc21 [II, 7-n-Hexyl-4,5,6,7-tetrahydro-2,5-dimethyl-4,6-dioxo-2H-pyrazolo[3,4-d]-pyrimidin] |  |  |
|  | 63,04% | CCCCCCn1c(=O)n(C)c(=O)c2cn(CCC)nc21 [IV, 7-n-Hexyl-4,5,6,7-tetrahydro-5-methyl-4,6-dioxo-2-n-propyl-2H-pyrazolo-[3,4-d]pyrimidin] |  |  |
|  | 37,83% | CCCCCCn1c(=O)c2cn(CCCC)nc2n(C)c1=O [X, 2-n-Butyl-5-n-hexyl-4,5,6,7-tetrahydro-7-methyl-4,6-dioxo-2H-pyra-zolo[3,4-d]pyrimidin] |  |  |
| 95 |  | CCCCCCn1c(=O)n(C)c(=O)c2cnn(C)c21 [XIII, 7-Hexyl-4,5,6,7-tetrahydro-1,5-dimethyl-4,6-dioxo-1H-pyrazolo-[3,4-d]pyrimidin] | 1,4 |  |
|  |  | CC(=O)CCCCn1c(=O)c2c(ncn2C)n(C)c1=O [Pentoxifyllin, reference compound] |  | Retinotrope Wirkung [%] ([3]; Dosis 6,25 mg/kg): 0%; retinotrope Wirkung (in words) [3]: noch keine retinotrope Wirkung |
| 75 |  | COc1cc(C(=O)n2cc3c(=O)n(CC(C)C)c(=O)n(C)c3n2)cc(OC)c1OC [XVI, 5-i-Butyl-4,5,6,7-tetrahydro-2-(3,4,5-trimethoxybenzoyl)-7-methyl-4,6-dioxo-2H-pyrazolo[3,4-d]pyrimidin] | 1,7 |  |
|  | 52,43% | CCCCCCn1c(=O)c2cn[nH]c2n(C)c1=O [VII, 5-n-Hexyl-4,5,6,7-tetrahydro-7-methyl-4,6-dioxo-1H-pyrazolo[3,4-d]-pyrimidin] |  |  |
|  | 37,30% | CCCCCCn1cc2c(=O)n(C)c(=O)n(CCCCCC)c2n1 [VI, 2,7-Di-n-hexyl-4,5,6,7-tetrahydro-5-methyl-4,6-dioxo-2H-pyrazolo[3,4-d]-pyrimidin] |  |  |
|  |  | CCCCCCn1c(=O)c2cn(C(=O)c3cc(OC)c(OC)c(OC)c3)nc2n(C)c1=O [XII, 5-n-Hexyl-4,5,6,7-tetrahydro-2-(3,4,5-trimethoxybenzoyl)-7-methyl-4,6-dioxo-2H-pyrazolo[3,4-d]pyrimidin] | 3,7 | EC50 ([1]; Cavia porcellus): 350 µM; Retinotrope Wirkung [%] ([3]; Dosis 1 mg/kg): +40% |
| 13 |  | CC(C)Cn1c(=O)n(C)c(=O)c2cn(CCO)nc21 [XVIII, 7-j-Butyl-4,5,6,7-tetrahydro-2-(2-hydroxyethyl)-5-methyl-4,6-dioxo-2H-pyrazolo[3,4-d]pyrimidin] | 10,0 |  |
|  | 42,04% | CCCCCCn1c(=O)c2cn(C)nc2n(C)c1=O [VIII, 5-n-Hexyl-4,5,6,7-tetrahydro-2,7-dimethyl-4,6-dioxo-2H-pyrazolo-[3,4-d]pyrimidin] |  |  |

| SMILES | EC50 [1] [µM] | Hemmung der PDE in % [2] | Relative Wirkungsstärke (Theophyllin=1,00) [1] | also measured |
| --- | --- | --- | --- | --- |
| Cn1c(=O)c2[nH]cnc2n(C)c1=O [Theophyllin, reference compound] | 130 | 37,13% | 1,00 | Retinotrope Wirkung [%] ([3]; Dosis 10 mg/kg): 0%; retinotrope Wirkung (in words) [3]: noch keine retinotrope Wirkung |
